Results reported in patent publication US20150353495A1 (PORTOLA PHARMACEUTICALS, INC., priority 2010, published 2015).

How the values were obtained:
Format in all cases: biochemical
[1] = target: T1, JAK2 (Homo sapiens, UniProt O60674); experiment: Z'-LYTE kinase assay JAK2
T1 construct: 5 μl of catalytic domain recombinant Kinase enzyme+Tyr peptide substrate (Invitrogen, CA); purchased Invitrogen
Experimental: (§1) JAK and TYK2 tyrosine phosphorylation activity is measured using the Z′-LYTE™ Technology developed by Invitrogen Corporation (Carlsbad, Calif.). For JAK1, JAK2 and JAK3 the Z′-LYTE™ Kinase Assay Kit-Tyr6 Peptide (part number PV4122) was used. For TYK2 the Z′-LYTE™ Kinase Assay Kit-Tyr6 Peptide (part number PV3192) was used. The Z′-LYTE™ biochemical assay employs a fluorescence resonance energy transfer (FRET) coupled-enzyme format and is based on the differential sensitivity of phosphorylated and non-phosphorylated peptides to proteolitic cleavage. The assay uses a synthetic peptide substrate that is labelled with a donor fluorophore (coumarin) and an acceptor fluorophore (fluorescein) that make up a FRET pair. In the primary reaction (the Kinase Reaction), the kinase transfers the γ-phosphate of ATP to a single tyrosine residue on the substrate, while the presence of a kinase inhibitor in the primary reaction suppresses phosphorylation. In the secondary reaction (the Development Reaction), a site-specific protease (the Development Reagent) is added. The development buffer quenches the Kinase Reaction, while the protease recognizes and cleaves non-phosphorylated Z′-LYTE™ peptide substrate. Cleavage disrupts FRET between the donor and acceptor fluorophores on the non-phosphoryleted substrate, while uncleaved, phosphorylated substrate maintains FRET.
(§2) To test the ability of candidate molecules to inhibit JAK tyrosine phosphorylation activity, molecules are reconstituted in 100% DMSO and serially diluted 1:10 in polypropylene v-bottom microtiter plates. The candidate molecules are then diluted 1:25 into kinase buffer and 2.5 μl transferred into duplicate wells of a 384 well low volume black microtiter assay plate (Corning, USA). The final DMSO concentration in the assay is 1%. The kinase reaction contains 2.5 μl of a candidate molecule, 5 μl of catalytic domain recombinant Kinase enzyme+Tyr peptide substrate (Invitrogen, CA) and 2.5 μl ATP (Invitrogen, CA). The kinase reaction is allowed to procede for 1 hour at room temperature. The protease reaction is initiated by the addition of 5 μl Development Reagent (Invitrogen, CA). After 1 hour incubation at room temperature the fluorescence is measured using a FlexStation plate reader (Molecular Devices, Sunnyvale, Calif.).

[2] = target: T2, JAK1 (Homo sapiens, UniProt P23458); experiment: Z'-LYTE kinase assay JAK1
T2 construct: 5 μl of catalytic domain recombinant Kinase enzyme+Tyr peptide substrate (Invitrogen, CA); purchased Invitrogen
T2 sequence (P23458 875-1153 limits assumed): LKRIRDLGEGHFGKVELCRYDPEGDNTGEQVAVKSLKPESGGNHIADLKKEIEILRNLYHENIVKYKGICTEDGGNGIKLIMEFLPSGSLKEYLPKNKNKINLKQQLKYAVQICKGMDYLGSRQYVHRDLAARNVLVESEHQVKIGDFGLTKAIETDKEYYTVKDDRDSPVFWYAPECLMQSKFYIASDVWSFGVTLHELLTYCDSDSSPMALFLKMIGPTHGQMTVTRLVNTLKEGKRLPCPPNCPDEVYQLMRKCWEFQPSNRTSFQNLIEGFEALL
Experimental: as §1, §2

[3] = target: T3, JAK3 (Homo sapiens, UniProt P52333); experiment: Z'-LYTE kinase assay JAK3
T3 construct: 5 μl of catalytic domain recombinant Kinase enzyme+Tyr peptide substrate (Invitrogen, CA); purchased Invitrogen
T3 sequence (P52333 822-1111 limits assumed): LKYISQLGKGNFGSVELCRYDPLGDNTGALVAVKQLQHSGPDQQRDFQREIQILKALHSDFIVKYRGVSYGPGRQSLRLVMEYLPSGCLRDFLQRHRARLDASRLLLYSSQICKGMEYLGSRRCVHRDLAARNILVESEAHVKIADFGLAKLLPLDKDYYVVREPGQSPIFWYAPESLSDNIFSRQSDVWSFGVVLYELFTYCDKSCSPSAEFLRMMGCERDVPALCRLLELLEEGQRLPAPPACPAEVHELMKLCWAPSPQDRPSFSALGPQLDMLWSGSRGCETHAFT
Experimental: as §1, §2

T1 sequence (O60674 849-1124 limits assumed): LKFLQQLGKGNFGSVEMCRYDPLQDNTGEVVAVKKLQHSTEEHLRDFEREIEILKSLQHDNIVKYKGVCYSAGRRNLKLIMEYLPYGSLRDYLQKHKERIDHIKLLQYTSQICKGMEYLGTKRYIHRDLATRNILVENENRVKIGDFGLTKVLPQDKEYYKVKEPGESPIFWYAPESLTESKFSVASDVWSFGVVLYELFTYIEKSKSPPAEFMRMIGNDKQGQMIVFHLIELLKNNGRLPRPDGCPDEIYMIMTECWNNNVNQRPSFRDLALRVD

IC50 [1] [nM] | IC50 [2] [nM] | IC50 [3] [nM] | SMILES
100 to 1000 | > 1000 | 10 to 100 | CN(C)S(=O)(=O)c1ccc(Nc2cc(NCc3cc(F)ccc3F)c(C(N)=O)cn2)cc1 [Example 98, 4-(2,5-difluorobenzylamino)-6-(4-(N,N-dimethylsulfamoyl)phenylamino)nicotinamide]
100 to 1000 | 100 to 1000 | 1 to 10 | NC(=O)c1cnc(Nc2cccc(C(=O)N3CCC3)c2)cc1NCc1cc(F)ccc1F [Example 99, 6-(3-(azetidine-1-carbonyl)phenylamino)-4-(2,5-difluorobenzylamino)nicotinamide]
> 1000 | > 1000 | 10 to 100 | COc1ccc(Nc2cc(NCc3cccc(F)c3F)c(C(N)=O)cn2)cc1 [Example 101, 4-(2,3-difluorobenzylamino)-6-(4-methoxyphenylamino)nicotinamide]
> 1000 | > 1000 | 10 to 100 | NC(=O)c1cnc(Nc2ccc(C3CCN(S(=O)(=O)C4CC4)CC3)cc2)cc1NCc1ccccc1F [Example 113, 6-(4-(1-(cyclopropylsulfonyl)piperidin-4-yl)phenylamino)-4-(2-fluorobenzylamino)nicotinamide]
> 1000 | > 1000 | 10 to 100 | N#CC1(C(=O)N2CCC(c3ccc(Nc4cc(NCc5ccccc5F)c(C(N)=O)cn4)cc3)CC2)CC1 [Example 118, 6-(4-(1-(1-cyanocyclopropanecarbonyl)piperidin-4-yl)phenylamino)-4-(2-fluorobenzylamino)nicotinamide]
10 to 100 | 100 to 1000 | 1 to 10 | NC(=O)c1cnc(Nc2cccc(C3CCNCC3)c2)cc1NCc1ccccc1F [Example 120, 4-(2-fluorobenzylamino)-6-(3-(piperidin-4-yl)phenylamino)nicotinamide]
100 to 1000 | 100 to 1000 | 10 to 100 | CS(=O)(=O)N1CCC(c2cccc(Nc3cc(NCc4ccccc4F)c(C(N)=O)cn3)c2)CC1 [Example 121, 4-(2-fluorobenzylamino)-6-(3-(1-(methylsulfonyl)piperidin-4-yl)phenylamino)nicotinamide]
100 to 1000 | 100 to 1000 | 10 to 100 | CC(=O)N1CCN(c2ccc(Nc3cc(N[C@H]4CC[C@@H](O)CC4)c(C(N)=O)cn3)cc2)CC1 [Example 123, 6-(4-(4-acetylpiperazin-1-yl)phenylamino)-4-((cis)-4-hydroxycyclohexylamino)nicotinamide]
100 to 1000 | > 1000 | 10 to 100 | CCC(=O)N1CCN(c2ccc(Nc3cc(NC4(c5ccccc5)CC4)c(C(N)=O)cn3)cc2)CC1 [Example 124, 4-(1-phenylcyclopropylamino)-6-(4-(4-propionylpiperazin-1-yl)phenylamino)nicotinamide]
100 to 1000 | > 1000 | 10 to 100 | NC(=O)c1cnc(Nc2ccc(N3CCOCC3)cc2)cc1NC1(c2ccccc2)CC1 [Example 125, 6-(4-morpholinophenylamino)-4-(1-phenylcyclopropylamino)-nicotinamide]
100 to 1000 | > 1000 | 10 to 100 | NC(=O)c1cnc(Nc2ccc(CN3CCOCC3)cc2)cc1NC1(c2ccccc2)CC1 [Example 127, 6-(4-(morpholinomethyl)phenylamino)-4-(1-phenylcyclopropylamino)nicotinamide]
> 1000 | > 1000 | 10 to 100 | NC(=O)c1cnc(Nc2cccc(N3CCOCC3)c2)cc1NC1(c2ccccc2)CC1 [Example 128, 6-(3-morpholinophenylamino)-4-(1-phenylcyclopropylamino)-nicotinamide]
100 to 1000 | > 1000 | 10 to 100 | NC(=O)c1cnc(Nc2cccc(CN3CCOCC3)c2)cc1NC1(c2ccccc2)CC1 [Example 129, 6-(3-(morpholinomethyl)phenylamino)-4-(1-phenylcyclopropylamino)nicotinamide]
> 1000 | > 1000 | 100 to 1000 | NC(=O)c1cnc(Nc2ccc(N3CCC(F)(F)CC3)cc2)cc1NC1(c2ccccc2)CC1 [Example 131, 6-(4-(4,4-difluoropiperidin-1-yl)phenylamino)-4-(1-phenylcyclopropylamino)nicotinamide]
100 to 1000 | > 1000 | 10 to 100 | NC(=O)c1cnc(Nc2ccc(OCCN3CCCC3)cc2)cc1NC1(c2ccccc2)CC1 [Example 132, 4-(1-phenylcyclopropylamino)-6-(4-(2-(pyrrolidin-1-yl)ethoxy)phenylamino)nicotinamide]
100 to 1000 | > 1000 | 10 to 100 | NC(=O)c1cnc(Nc2ccc(OCC(=O)N3CCOCC3)cc2)cc1NC1(c2ccccc2)CC1 [Example 133, 6-(4-(2-morpholino-2-oxoethoxy)phenylamino)-4-(1-phenylcyclopropylamino)nicotinamide]
> 1000 | > 1000 | 10 to 100 | NC(=O)c1cnc(Nc2cccc(OCC(=O)N3CCOCC3)c2)cc1NC1(c2ccccc2)CC1 [Example 134, 6-(3-(2-morpholino-2-oxoethoxy)phenylamino)-4-(1-phenylcyclopropylamino)nicotinamide]
> 1000 | > 1000 | 100 to 1000 | CC(=O)Nc1cccc(Nc2cc(NC3(c4ccccc4)CC3)c(C(N)=O)cn2)c1 [Example 135, 6-(3-acetamidophenylamino)-4-(1-phenylcyclopropylamino)nicotinamide]
> 1000 | > 1000 | 10 to 100 | CN1CCC(C(=O)Nc2cc(Nc3cc(NC4(c5ccccc5)CC4)c(C(N)=O)cn3)ccc2Cl)CC1 [Example 136, 6-(4-chloro-3-(1-methylpiperidine-4-carboxamido)phenylamino)-4-(1-phenylcyclopropylamino)nicotinamide]
> 1000 | > 1000 | 100 to 1000 | NC(=O)c1cnc(Nc2ccc(C3CCOCC3)cc2)cc1NC1CCOCC1 [Example 139, 6-(4-(tetrahydro-2H-pyran-4-yl)phenylamino)-4-(tetrahydro-2H-pyran-4-ylamino)nicotinamide]
100 to 1000 | > 1000 | 100 to 1000 | NC(=O)c1cnc(Nc2ccc(C3CCOCC3)cc2)cc1NCC1CCOCC1 [Example 140, 4-((tetrahydro-2H-pyran-4-yl)methylamino)-6-(4-(tetrahydro-2H-pyran-4-yl)phenylamino)nicotinamide]
100 to 1000 | > 1000 | 10 to 100 | NC(=O)c1cnc(Nc2ccc(C3CCOCC3)cc2)cc1NCC1(O)CCCC1 [Example 141, 4-((1-hydroxycyclopentyl)methylamino)-6-(4-(tetrahydro-2H-pyran-4-yl)phenylamino)nicotinamide]
100 to 1000 | > 1000 | 10 to 100 | NC(=O)c1cnc(Nc2ccc(C3CCOCC3)cc2)cc1NCc1ccccc1F [Example 142, 4-(2-fluorobenzylamino)-6-(4-(tetrahydro-2H-pyran-4-yl)phenylamino)nicotinamide]
100 to 1000 | > 1000 | 10 to 100 | CCC(=O)N1CCC(c2ccc(Nc3cc(NCC4CCOCC4)c(C(N)=O)cn3)cc2)CC1 [Example 144, 6-(4-(1-propionylpiperidin-4-yl)phenylamino)-4-((tetrahydro-2H-pyran-4-yl)methylamino)nicotinamide]
10 to 100 | > 1000 | 1 to 10 | CCC(=O)N1CCC(c2ccc(Nc3cc(NCc4cccc(F)c4)c(C(N)=O)cn3)cc2)CC1 [Example 145, 4-(3-fluorobenzylamino)-6-(4-(1-propionylpiperidin-4-yl)phenylamino)nicotinamide]
100 to 1000 | > 1000 | 100 to 1000 | CCC(=O)N1CCC(c2ccc(Nc3cc(NC4CCOCC4)c(C(N)=O)cn3)cc2)CC1 [Example 146, 6-(4-(1-propionylpiperidin-4-yl)phenylamino)-4-(tetrahydro-2H-pyran-4-ylamino)nicotinamide]
100 to 1000 | 100 to 1000 | 10 to 100 | CCC(=O)N1CCC(c2ccc(Nc3cc(NC4CCCC4)c(C(N)=O)cn3)cc2)CC1 [Example 147, 4-(cyclopentylamino)-6-(4-(1-propionylpiperidin-4-yl)phenylamino)nicotinamide]
100 to 1000 | > 1000 | 100 to 1000 | CCC(=O)N1CCC(c2ccc(Nc3cc(NCc4ccc(F)c(F)c4)c(C(N)=O)cn3)cc2)CC1 [Example 148, 4-(3,4-difluorobenzylamino)-6-(4-(1-propionylpiperidin-4-yl)phenylamino)nicotinamide]
